# Laboratory results reported in US20240384268A1, “Oligonucleotides” (Hudson Institute of Medical Research, priority 2021, published 2024).
# In the oligonucleotide strings, read from the 5' end, every base follows the letter of its sugar. An asterisk marks phosphorothioate; unmarked linkages are phosphodiester. Other units and linkages are bracketed, terminal groups are in braces. A string of capitals states the bases alone. d = 2'-deoxy (DNA); m = 2'-O-methyl
# Molecular target: T1, TLR8 (Homo sapiens, UniProt Q9NR97)
# T1 sequence (Q9NR97 27-1041): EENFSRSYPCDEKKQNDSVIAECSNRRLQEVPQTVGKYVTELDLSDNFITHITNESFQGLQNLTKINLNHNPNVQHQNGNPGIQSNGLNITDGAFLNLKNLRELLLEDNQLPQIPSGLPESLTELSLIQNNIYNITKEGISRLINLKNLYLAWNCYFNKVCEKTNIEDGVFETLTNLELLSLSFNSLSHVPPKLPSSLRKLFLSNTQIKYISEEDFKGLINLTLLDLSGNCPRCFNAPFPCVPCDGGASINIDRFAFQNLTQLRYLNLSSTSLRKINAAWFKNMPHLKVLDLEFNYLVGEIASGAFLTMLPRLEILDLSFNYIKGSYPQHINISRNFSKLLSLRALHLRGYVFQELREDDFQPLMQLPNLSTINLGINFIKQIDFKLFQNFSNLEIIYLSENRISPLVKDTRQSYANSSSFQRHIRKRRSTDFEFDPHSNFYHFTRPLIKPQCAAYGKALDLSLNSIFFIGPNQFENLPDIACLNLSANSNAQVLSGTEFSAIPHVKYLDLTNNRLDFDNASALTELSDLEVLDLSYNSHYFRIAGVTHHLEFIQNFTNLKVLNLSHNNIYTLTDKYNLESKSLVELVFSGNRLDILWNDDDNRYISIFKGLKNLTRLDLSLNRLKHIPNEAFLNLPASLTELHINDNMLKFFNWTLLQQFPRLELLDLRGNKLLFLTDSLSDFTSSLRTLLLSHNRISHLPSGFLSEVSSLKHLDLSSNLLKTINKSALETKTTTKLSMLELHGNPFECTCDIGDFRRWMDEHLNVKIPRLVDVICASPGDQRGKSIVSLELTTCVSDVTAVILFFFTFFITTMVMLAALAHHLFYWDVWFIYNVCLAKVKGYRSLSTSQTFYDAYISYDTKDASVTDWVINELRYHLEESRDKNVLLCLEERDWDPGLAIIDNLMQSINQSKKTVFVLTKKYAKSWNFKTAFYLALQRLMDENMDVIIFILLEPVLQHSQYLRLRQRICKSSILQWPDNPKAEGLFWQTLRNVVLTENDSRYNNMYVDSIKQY
# Experiment: HEK-TLR8 NF-κB-luciferase reporter, R848 or Motolimod stimulation (potentiation or inhibition)
# Type: cell-based
# Design: expressed in transfected cells; host or cells: 293XLhTLR8 (HEK293)
# Details: HEK-TLR8; 500 nM ASO; fold increase relative to R848 without ASO (Alharbi et al., 2020)
row,Substance,TLR8-500 nM: averaged NF-κB-Luciferase relative to R848 [fold]
1,mC*mA*mU*mC*mC*C*T*T*C*T*G*C*T*G*C*mC*mA*mA*mG*mC (mC*mA*mU*mC*mC*dC*dT*dT*dC*dT*dG*dC*dT*dG*dC*mC*mA*mA*mG*mC; antisense) [[LINC-PINT]98],8.23
2,mC*mC*mA*mU*mC*C*C*T*T*C*T*G*C*T*G*mC*mC*mA*mA*mG (mC*mC*mA*mU*mC*dC*dC*dT*dT*dC*dT*dG*dC*dT*dG*mC*mC*mA*mA*mG; antisense) [ILING-PINT199],5.67
3,"mC*mC*mA*mU*mG*T*C*C*C*A*G*G*C*C*T*mC*mC*mA*mG*mU (CCAUGTCCCAGGCCTCCAGU; sugars from the 5' end m5 d10 m5, all phosphorothioate, methylation of C not given here) [[CDKN2B-AS1]2227]",1.46
4,mC*mC*mC*mU*mA*A*T*G*C*T*T*T*C*C*T*mC*mU*mC*mC*mA (mC*mC*mC*mU*mA*dA*dT*dG*dC*dT*dT*dT*dC*dC*dT*mC*mU*mC*mC*mA; antisense) [[LINC-PINT1877 KL],8.39
5,mC*mC*mC*mU*mU*C*T*C*T*C*T*G*G*T*C*mC*mC*mA*mU*mC (mC*mC*mC*mU*mU*dC*dT*dC*dT*dC*dT*dG*dG*dT*dC*mC*mC*mA*mU*mC; antisense) [[LINC-PINT]114],8.12
6,mC*mC*mU*mA*mG*A*A*A*G*A*A*G*C*A*A*mA*mG*mA*mU*mU (mC*mC*mU*mA*mG*dA*dA*dA*dG*dA*dA*dG*dC*dA*dA*mA*mG*mA*mU*mU) [[CDKN2B-AS1]1522],4.94
7,mC*mC*mU*mU*mC*T*C*T*C*T*G*GT*C*C*mC*mA*mU*mC*mC (CCUUCTCTCTGGTCCCAUCC; antisense; chemistry not fully specified) [[LINC-PINT]113],3.51
8,mC*mC*mU*mU*mC*T*G*C*T*G*C*C*A*A*G*mC*mC*mC*mC*mA (mC*mC*mU*mU*mC*dT*dG*dC*dT*dG*dC*dC*dA*dA*dG*mC*mC*mC*mC*mA; antisense) [[LINC-PINT]94],3.71
9,mC*mU*mC*mU*mC*T*G*G*T*C*C*C*A*T*C*mC*mC*mU*mU*mC (mC*mU*mC*mU*mC*dT*dG*dG*dT*dC*dC*dC*dA*dT*dC*mC*mC*mU*mU*mC; antisense) [[LINC-PINT]109],10.10
10,mC*mU*mU*mC*mU*C*T*C*T*G*G*T*C*C*C*mA*mU*mC*mC*mC (mC*mU*mU*mC*mU*dC*dT*dC*dT*dG*dG*dT*dC*dC*dC*mA*mU*mC*mC*mC) [[LINC-PINT]112],9.21
11,mC*mU*mU*mU*mA*T*A*T*T*A*C*A*A*A*G*mC*mU*mA*mC*mU (mC*mU*mU*mU*mA*dT*dA*dT*dT*dA*dC*dA*dA*dA*dG*mC*mU*mA*mC*mU; antisense) [[LINC-PINT]2755],6.37
12,"mG*mA*mA*mA*mA*G*A*T*T*A*T*C*T*T*C*mU*mU*mU*mU*mA (GAAAAGATTATCTTCUUUUA; sugars from the 5' end m5 d10 m5, all phosphorothioate, methylation of C not given here) [[CDKN2B-AS1]2134]",1.87
13,"mG*mA*mU*mG*mG*T*T*C*C*A*G*T*C*C*C*mU*mC*mU*mU*mC (GAUGGTTCCAGTCCCUCUUC; antisense; sugars from the 5' end m5 d10 m5, all phosphorothioate, methylation of C not given here) [[LINC-PINT]1497.1]",1.01
14,mG*mA*mU*mU*mA*A*A*A*C*A*G*A*T*T*A*mA*mU*mA*mC*mA (mG*mA*mU*mU*mA*dA*dA*dA*dC*dA*dG*dA*dT*dT*dA*mA*mU*mA*mC*mA) [[CDKN2B-AS1]1773],1.48
15,"mG*mC*mA*mA*mG*G*C*A*G*A*G*A*A*A*C*mU*mC*mC*mA*mG (GCAAGGCAGAGAAACUCCAG; sugars from the 5' end m5 d10 m5, all phosphorothioate, methylation of C not given here) [[LINC-PINT]1315 KL]",2.69
16,"mG*mC*mG*mU*mA*G*T*T*T*C*T*C*T*T*C*mC*mU*mC*mC*mC (GCGUAGTTTCTCTTCCUCCC; sugars from the 5' end m5 d10 m5, all phosphorothioate, methylation of C not given here) [[LINC-PINT]935 KL]",4.12
17,"mG*mG*mA*mU*mU*A*A*A*A*C*A*G*A*T*T*mA*mA*mU*mA*mC (GGAUUAAAACAGATTAAUAC; sugars from the 5' end m5 d10 m5, all phosphorothioate, methylation of C not given here) [[CDKN2B-AS1]1774]",1.67
18,"mG*mG*mG*mU*mC*T*C*C*T*C*C*A*C*A*C*mC*mC*mU*mU*mC (GGGUCTCCTCCACACCCUUC; antisense; sugars from the 5' end m5 d10 m5, all phosphorothioate, methylation of C not given here) [[LINC-PINT]128]",1.23
19,"mG*mG*mU*mC*mC*C*A*T*C*C*C*T*T*C*T*mG*mC*mU*mG*mC (GGUCCCATCCCTTCTGCUGC; sugars from the 5' end m5 d10 m5, all phosphorothioate, methylation of C not given here) [[LINC-PINT]103]",1.87
20,mG*mG*mU*mC*mU*C*C*T*C*C*A*C*A*C*C*mC*mU*mU*mC*mU (mG*mG*mU*mC*mU*dC*dC*dT*dC*dC*dA*dC*dA*dC*dC*mC*mU*mU*mC*mU; antisense) [[LINC-PINT]127],3.72
21,"mG*mG*mU*mG*mG*C*C*A*C*A*G*G*C*A*A*mC*mG*mU*mC*mA (GGUGGCCACAGGCAACGUCA; antisense; sugars from the 5' end m5 d10 m5, all phosphorothioate, methylation of C not given here) [[CDKN2B-AS1]2196]",0.98
22,mG*mU*mC*mA*mA*A*C*C*T*A*G*A*A*A*G*mA*mA*mG*mC*mA (mG*mU*mC*mA*mA*dA*dC*dC*dT*dA*dG*dA*dA*dA*dG*mA*mA*mG*mC*mA; antisense) [[CDKN2B-AS1]1528],1.85
23,mG*mU*mC*mC*mC*A*G*G*C*C*T*C*C*A*G*mU*mG*mU*mC*mU (mG*mU*mC*mC*mC*dA*dG*dG*dC*dC*dT*dC*dC*dA*dG*mU*mG*mU*mC*mU; antisense) [[CDKN2B-AS1]2223],2.17
24,"mG*mU*mC*mC*mC*A*T*C*C*C*T*T*C*T*G*mC*mU*mG*mC*mC (GUCCCATCCCTTCTGCUGCC; antisense; sugars from the 5' end m5 d10 m5, all phosphorothioate, methylation of C not given here) [[LINC-PINT]102]",5.07
25,mG*mU*mC*mC*mG*T*A*C*C*T*C*C*A*C*C*mC″mA*mC*mC*mG [[LINC-PINT]727.1],3.70
26,mG*mU*mC*mU*mC*C*T*C*C*A*C*A*C*C*C*mU*mU*mC*mU*mC (mG*mU*mC*mU*mC*dC*dT*dC*dC*dA*dC*dA*dC*dC*dC*mU*mU*mC*mU*mC; antisense) [[LINC-PINT]126],7.17
27,mG*mU*mU*mC*mA*G*T*C*A*G*A*T*C*G*C*mU*mG*mG*mG*mA (mG*mU*mU*mC*mA*dG*dT*dC*dA*dG*dA*dT*dC*dG*dC*mU*mG*mG*mG*mA) [[LINC-PINT]412 KL],1.70
28,mU*mA*mA*mA*mA*T*A*A*G*G*G*G*A*A*T*mA*mG*mG*mG*mG (mU*mA*mA*mA*mA*dT*dA*dA*dG*dG*dG*dG*dA*dA*dT*mA*mG*mG*mG*mG) [[CDKN2B-AS1]80],1.30
29,mU*mC*mC*mC*mA*A*C*T*C*T*T*C*T*A*A*mC*mU*mC*mG*mU (mU*mC*mC*mC*mA*dA*dC*dT*dC*dT*dT*dC*dT*dA*dA*mC*mU*mC*mG*mU; antisense) [[LINC-PINT]1284 KL],13.35
30,"mU*mC*mC*mC*mA*T*C*C*C*T*T*C*T*G*C*mU*mG*mA*mC*mA (UCCCATCCCTTCTGCUGACA; sugars from the 5' end m5 d10 m5, all phosphorothioate, methylation of C not given here) [[LINC-PINT]101]",10.88
